pIC50: −log10 of the molar value.
Columns and labels:
rats (food intake) [1] = assay: Effect of ICV or i.p. administration of test compounds on rat food intake
Na/K ATPase [2] = assay: 86-Rubidium uptake in cultures of fetal rat hypothalamic neurons; assay type: cell-based; conditions: for effect on ouabain inhibition of 86-Rb uptake: preincubated 10 min, then ouabain 1000 nM
[3] = tested on: hypothalamus (ATP content); assay: ATP content in hypothalamic slice punches after ICV injection in rats; assay type: in vivo, rat; conditions: rats on normal (ad lib) diet, ICV 40 nmoles, punches 24 hours later, P<0.05
Method: In several experiments, to determine subsequent effects on food intake, hypothalamic Na/K ATPase activity or ATP content, the animals were administered the test compounds by ICV injection. Animals were anesthetized with sodium barbiturate (6 mg/100 g BW). Under stereotaxic fixation (David Kopf), with aseptic technique, a 25 ul Hamilton micro syringe (Reno, Nev.) needle tip was inserted according to the published references: 2 mm lateral to the middline at the bregma; −4.3 mm to the bregma; 5.5 mm deep to the dura; −1.3 mm with the shaft inclined medially at 13° […]. to the vertical. […] All injections were calculated and expressed in absolute amount, i.e. nmoles. […]
Following extraction, the content of ATP in these slice punches was measured by the Enliten™ ATP Assay system (see below). […]
As described above, hypothalamic tissues after removal or removal/incubation were transferred to 1.5 ml Eppendorf tubes with 50 μl TCA (5%) and immediately homogenated with a plastic homogenizer. […] ATP was measured according to the kit protocol. […] Light photons were measured by a luminometer and were compared with an ATP standard curve to calculate ATP concentration. […] ATP content is expressed as moles per mg protein for tissue samples, moles per 5 mg tissue for section punches, and as moles per neuron culture well; expressed in appropriate quantitative units for each experiment. […]

[4] = tested on: fetal rat hypothalamic neurons; assay: ATP content in cultured fetal hypothalamic neurons (Enliten ATP Assay); assay type: cell-based; conditions: for increase of ATP content: 30 minute incubation in vitro
rats (food intake) [5] = conditions: ICV, depending on dose
[6] = tested on: hypothalamus (ATP content); conditions: rats treated with supraphysiological doses of triiodothyronine (T3), ICV; cited from earlier work
Na/K ATPase [7] = assay: Competitive binding / Na/K ATPase activity in membrane concentrates from brain, kidney and gut; assay type: biochemical
ouabain receptors = assay: 3H-ouabain binding in cultured fetal rat hypothalamic neurons (whole cell); conditions: whole cell hypothalamic culture
Text: This binding was unaffected and in some experiments appeared to actually increase during exposure to Compound (1). Compound (2) was not tested.

[8] = tested on: ATP-sensitive K+ channels; assay: Electrophysiological recordings in hypothalamic slices (glucose sensitive neurons); assay type: cell-based; conditions: hypothalamic slice recordings
Na/K ATPase [9] = assay: 86-Rubidium uptake into incubated rat hypothalamic slice punches; assay type: cell-based; conditions: for effect of agent alone on 86Rb uptake: Compound (1) at up to 5000 nM
Method: The whole brain was removed from the skull and inserted into a Precision Brain Slicer (RMB 3000C, Braintree Scientific INC.). As scaled from the rear, a brain slice was removed between the 8 and 10 scale (about 2 mm). The medial-basal hypothalamus was punched using a round mouth #18 1 mm diameter needle with attached syringe. The tissue included most of arcuate nucleus of the hypothalamus and a small part of nucleus paremamillaris ventralis. The tissue was pushed into 0.5 ml DMEM medium in a 24 well cell culture plate. Following preincubation at 37° C., in air/5% CO2 for 30 min., concentrations of test Compound were added for an additional 30 min. Finally, 86-rubidium- (^86Rb) 1 μCi was added to each well for 20 minutes at room temperature. The tissue was then transferred to tubes with a protein dialysis solution to dissolve protein. Five (5) ml scintillation liquid was added to each tube and the photoemissions determined in a β-counter (Beckman).

C/C=C(\C)C(=O)O[C@@H]1CC2C(CC=C3C[C@@H](O)CC[C@@]32C)[C@@]2(O)CC[C@H](C(C)=O)[C@@]12C (stereo partly drawn) [Compound (2)]
effect on subsequent 24 hour food intake (rats (food intake) [1]; ICV, approximately 40 nmoles in DMSO): altered subsequent 24 hour food intake
effect on ouabain inhibition of 86-Rb uptake (Na/K ATPase [2]; hypothalamic neuron culture): had no effect

C/C=C(\C)C(=O)O[C@@H]1CC2C(CC=C3C[C@@H](OC4CC(OC)C(OC5CC(OC)C(OC6OC(C)C(O)C(OC)C6O)C(C)O5)C(C)O4)CC[C@@]32C)[C@@]2(O)CC[C@H](C(C)=O)[C@@]12C (stereo partly drawn) [Compound (1), tri-rhabinoside, 14-0H, 12-tigloyl pregnane steroidal glycoside]
effect on hypothalamic ATP content [3]: increased hypothalamic ATP content
increase of ATP content ([4]; 500 nM alone): up to 2 fold
increase of ATP content ([4]; 500 nM in combination with ouabain): up to 2 fold
effect on food intake after i.p. injection (rats (food intake) [1]; 20 nmoles administered once i.p. (data not shown)): did not significantly reduce food intake
effect on food intake at lowest dose (rats (food intake) [1]; ICV, 0.04 nmoles): significant but relatively minor effect
effect of agent alone on 86-Rb uptake (Na/K ATPase [2]; hypothalamic neuron culture): had no effect
concentrations at which reduction of ouabain inhibition of 86-Rb uptake was observed (Na/K ATPase [2]; hypothalamic neuron culture, ouabain 1000 nM): 5 to 500 nM
effect on ouabain inhibition of 86-Rb uptake (Na/K ATPase [2]; hypothalamic neuron culture): significantly reduced the inhibition
duration of effect on food intake (rats (food intake) [5]): 24 to 48 h
effect on apparent hypothalamic ATP deficit [6]: partially reversed
binding to / inhibition of activity of membrane extracts enriched with Na/K ATPase (Na/K ATPase [7]): does not bind to or inhibit activity
effect on tritiated (3H) ouabain binding (ouabain receptors): unaffected
effect on ATP-sensitive K+ channels [8]: activate (close)
effect of agent alone on 86Rb uptake (Na/K ATPase [9]): had no effect
effect on the inhibitory effect of ouabain on 86Rb uptake (Na/K ATPase [9]; with ouabain): almost completely blocked

C[C@@H]1O[C@@H](O[C@H]2C[C@@H](O)[C@]3(CO)[C@H]4[C@H](O)C[C@]5(C)[C@@H](C6=CC(=O)OC6)CC[C@]5(O)[C@@H]4CC[C@]3(O)C2)[C@H](O)[C@H](O)[C@H]1O [Ouabain, ouabain, reference compound]
effect on ATP content ([4]; hypothalamic culture, ouabain alone): had no effect or slightly reduced ATP content
behavioural effect observed (rats (food intake) [1]; ICV, approximately 8 nmoles in 4 μl DMSO): motor hyperactivity
effect on food intake (rats (food intake) [1]; ICV, approximately 8 nmoles in 4 μl DMSO (results not shown)): no consistent effect on food intake
effect on tritiated (3H) ouabain binding (ouabain receptors): specifically inhibited
effect of agent alone on 86Rb uptake (Na/K ATPase [9]): inhibited
